Measured values taken from patent US8962674B2 (Tokyo Institute of Technology, priority 2006, dated 2015).

**Q.** With `COc1ccc(/C=C/C(=O)CC(=O)/C=C/c2cc3ccccc3n2C)cc1O` [CU128, (1E,6E)-1-(3-hydroxy-4-methoxyphenyl)-7-(1-methyl-1H-indol-2-yl)hepta-1,6-diene-3,5-dione] as the molecule, how does the melting point read?
**A.** 185 to 193 °C

**Q.** With `O=C(/C=C/c1ccc(O)cc1)CC(=O)/C=C/c1ccc2ccccc2c1-c1ccccc1` [CU503, (1E,6E)-1-(4-hydroxyphenyl)-7-(1-phenylnaphthalen-2-yl)hepta-1,6-diene-3,5-dione] as the molecule, how does the melting point read?
**A.** 218 to 222 °C

**Q.** With `COc1cc(/C=C/C(=O)CC(=O)/C=C/c2ccc(O)cc2)ccc1[N+](=O)[O-]` [CU050, (1E,6E)-1-(4-hydroxyphenyl)-7-(3-methoxy-4-nitrophenyl)hepta-1,6-diene-3,5-dione] as the molecule, how does the melting point read?
**A.** 190 to 192 °C

**Q.** With `COc1cc(/C=C/C(=O)CC(=O)/C=C/c2ccc(Oc3ccccc3)cc2)ccc1O` [CU004, (1E,6E)-1-(4-hydroxy-3-methoxyphenyl)-7-(4-phenoxyphenyl)hepta-1,6-diene-3,5-dione] as the molecule, how does the melting point read?
**A.** 45 to 46 °C

**Q.** Which melting point does the source give for `COc1cc(/C=C/C(=O)CC(=O)/C=C/c2ccc3c(c2)OCCO3)ccc1O` [CU209, (1E,6E)-1-(2,3-dihydrobenzo[1,4]dioxin-6-yl)-7-(4-hydroxy-3-methoxyphenyl)hepta-1,6-diene-3,5-dione] here?
**A.** 141 to 145 °C

**Q.** For `O=C(/C=C/c1ccc(O)cc1)CC(=O)/C=C/c1cccc(Br)c1` [CU464, (1E,6E)-1-(3-bromophenyl)-7-(4-hydroxyphenyl)hepta-1,6-diene-3,5-dione], which melting point is on record?
**A.** 156 to 160 °C

**Q.** For `COc1ccccc1/C=C/C(=O)CC(=O)/C=C/c1ccc(O)cc1` [CU066, (1E,6E)-1-(4-hydroxyphenyl)-7-(2-methoxyphenyl)hepta-1,6-diene-3,5-dione], which melting point is on record?
**A.** 171 to 178 °C

**Q.** With `COc1ccc(/C=C/C(=O)CC(=O)/C=C/c2cc(OC)c(O)c(OC)c2)cc1O` [CU136, (1E,6E)-1-(4-hydroxy-3,5-dimethoxyphenyl)-7-(3-hydroxy-4-methoxyphenyl)hepta-1,6-diene-3,5-dione] as the molecule, how does the melting point read?
**A.** 91 to 95 °C

**Q.** With `COc1ccc(/C=C/C(=O)CC(=O)/C=C/c2ccc(OC)c(O)c2)cc1` [CU065, (1E,6E)-1-(3-hydroxy-4-methoxyphenyl)-7-(4-methoxyphenyl)hepta-1,6-diene-3,5-dione] as the molecule, how does the melting point read?
**A.** 137 to 140 °C

**Q.** For `COc1ccc(/C=C/C(=O)CC(=O)/C=C/c2ccc(OC)c3ccccc23)cc1O` [CU163, (1E,6E)-1-(3-hydroxy-4-methoxyphenyl)-7-(4-methoxynaphthalen-1-yl)hepta-1,6-diene-3,5-dione], which melting point is on record?
**A.** 170 to 175 °C

**Q.** Which melting point does the source give for `COc1cc(/C=C/C(=O)CC(=O)/C=C/c2ccc3c(c2)OCO3)ccc1O` [CU009, (1E,6E)-1-(benzo[1,3]dioxol-5-yl)-7-(4-hydroxy-3-methoxyphenyl)hepta-1,6-diene-3,5-dione] here?
**A.** 149 to 152 °C

**Q.** For `COc1ccc(/C=C/C(=O)CC(=O)/C=C/c2cn(C)c3ccccc23)cc1O` [CU125, (1E,6E)-1-(3-hydroxy-4-methoxyphenyl)-7-(1-methyl-1H-indol-3-yl)hepta-1,6-diene-3,5-dione], which melting point is on record?
**A.** 162 to 166 °C

**Q.** Which melting point does the source give for `O=C(/C=C/c1ccc(O)cc1)CC(=O)/C=C/c1ccccc1N1CCN(CCO)CC1` [CU501, (1E,6E)-1-{2-[4-(2-hydroxyethyl)piperazin-1-yl]phenyl}-7-(4-hydroxyphenyl)hepta-1,6-diene-3,5-dione] here?
**A.** 102 to 110 °C

**Q.** Which melting point does the source give for `Nc1ccc(/C=C/C(=O)CC(=O)/C=C/c2ccc(O)cc2)cc1` [CU408, (1E,6E)-1-(4-aminophenyl)-7-(4-hydroxyphenyl)hepta-1,6-diene-3,5-dione] here?
**A.** 212 to 217 °C

**Q.** For `COCOc1ccc(OC)cc1/C=C/C(=O)CC(=O)/C=C/c1cc(OC)ccc1O` [CU456, (1E,6E)-1-(2-hydroxy-5-methoxyphenyl)-7-[5-methoxy-2-(methoxymethoxy)phenyl]hepta-1,6-diene-3,5-dione], which melting point is on record?
**A.** 131 to 138 °C

**Q.** With `COc1cc(/C=C/C(=O)CC(=O)/C=C/c2cccnc2)ccc1O` [CU024, (1E,6E)-1-(4-hydroxy-3-methoxyphenyl)-7-(pyridin-3-yl)hepta-1,6-diene-3,5-dione] as the molecule, how does the melting point read?
**A.** 176 to 179 °C

**Q.** For `COc1cc(/C=C/C(=O)CC(=O)/C=C/c2ccc(OC)c(O)c2)cc(OC)c1` [CU101, (1E,6E)-1-(3,5-dimethoxyphenyl)-7-(3-hydroxy-4-methoxyphenyl)hepta-1,6-diene-3,5-dione], which melting point is on record?
**A.** 187 to 193 °C

**Q.** With `CN(C)c1cc(-c2ccccc2)ccc1/C=C/C(=O)CC(=O)/C=C/c1ccc(O)cc1` [CU536, (1E,6E)-1-(3-dimethylaminobiphenyl-4-yl)-7-(4-hydroxyphenyl)hepta-1,6-diene-3,5-dione] as the molecule, how does the melting point read?
**A.** 83 to 88 °C

**Q.** With `COc1ccc(/C=C/C(=O)CC(=O)/C=C/c2cn(Cc3ccccc3)c3ccccc23)cc1O` [CU417, (1E,6E)-1-(1-benzyl-1H-indol-3-yl)-7-(3-hydroxy-4-methoxyphenyl)hepta-1,6-diene-3,5-dione] as the molecule, how does the melting point read?
**A.** 194 to 199 °C

**Q.** With `O=C(/C=C/c1ccc(O)cc1)CC(=O)/C=C/c1ccccc1CO` [CU424, (1E,6E)-1-(2-hydroxymethylphenyl)-7-(4-hydroxyphenyl)hepta-1,6-diene-3,5-dione] as the molecule, how does the melting point read?
**A.** 173 to 180 °C

**Q.** With `COc1ccc(/C=C/C(=O)CC(=O)/C=C/c2ccc(O)c(Cl)c2)cc1O` [CU044, (1E,6E)-1-(3-chloro-4-hydroxyphenyl)-7-(3-hydroxy-4-methoxyphenyl)hepta-1,6-diene-3,5-dione] as the molecule, how does the melting point read?
**A.** 195 to 197 °C

**Q.** For `CC(C)(C)OC(=O)N[C@H](Cc1ccccc1)C(=O)Nc1ccc(/C=C/C(=O)CC(=O)/C=C/c2ccc(O)cc2)cc1` [CU406, (1E,6E)-1-[4-((R)-2-tert-butoxycarbonylamino-3-phenylpropionylamino)phenyl]-7-(4-hydroxyphenyl)hepta-1,6-diene-3,5-dione], which melting point is on record?
**A.** 113 to 120 °C

**Q.** With `COc1ccc(/C=C/C(=O)CC(=O)/C=C/c2ncc[nH]2)cc1O` [CU151, (1E,6E)-1-(3-hydroxy-4-methoxyphenyl)-7-(1H-imidazol-2-yl)hepta-1,6-diene-3,5-dione] as the molecule, how does the melting point read?
**A.** 219 to 221 °C

**Q.** For `COc1cc(/C=C/C(=O)CC(=O)/C=C/c2cc(Cl)ccc2Cl)ccc1O` [CU184, (1E,6E)-1-(2,5-dichlorophenyl)-7-(4-hydroxy-3-methoxyphenyl)hepta-1,6-diene-3,5-dione], which melting point is on record?
**A.** 142 to 147 °C

**Q.** With `O=C(/C=C/c1ccc(O)cc1)CC(=O)/C=C/c1cccc(Oc2ccccc2)c1` [CU214, (1E,6E)-1-(4-hydroxyphenyl)-7-(3-phenoxyphenyl)hepta-1,6-diene-3,5-dione] as the molecule, how does the melting point read?
**A.** 194 to 198 °C

**Q.** For `COc1cc(/C=C/C(=O)CC(=O)/C=C/c2ccc(Cl)cc2Cl)ccc1O` [CU144, (1E,6E)-1-(2,4-dichlorophenyl)-7-(4-hydroxy-3-methoxyphenyl)hepta-1,6-diene-3,5-dione], which melting point is on record?
**A.** 124 to 130 °C

**Q.** Which melting point does the source give for `CN(C)c1ccc(/C=C/C(=O)CC(=O)CCc2ccc(O)cc2)c([N+](=O)[O-])c1` [CU523, (E)-1-(4-dimethylamino-2-nitrophenyl)-7-(4-hydroxyphenyl)hept-1-ene-3,5-dione] here?
**A.** 136 to 142 °C

**Q.** For `COc1cccc(OC)c1/C=C/C(=O)CC(=O)/C=C/c1c(OC)cccc1OC` [CU390, (1E,6E)-1,7-bis(2,6-dimethoxyphenyl)hepta-1,6-diene-3,5-dione], which melting point is on record?
**A.** 180 to 184 °C

**Q.** With `CCN(CC)c1ccc(/C=C/C(=O)CC(=O)/C=C/c2ccc(O)c(OC)c2)c(OC(C)C)c1` [CU439, (1E,6E)-1-(4-diethylamino-2-isopropyloxyphenyl)-7-(4-hydroxy-3-methoxyphenyl)hepta-1,6-diene-3,5-dione] as the molecule, how does the melting point read?
**A.** 156 to 160 °C

**Q.** For `O=C(/C=C/c1ccc(O)cc1)CC(=O)/C=C/c1ccccn1` [CU233, (1E,6E)-1-(4-hydroxyphenyl)-7-(pyridin-2-yl)hepta-1,6-diene-3,5-dione], which melting point is on record?
**A.** 180 to 182 °C

**Q.** For `CC(C)(C)OC(=O)N[C@@H](Cc1ccccc1)C(=O)Nc1ccc(/C=C/C(=O)CC(=O)/C=C/c2ccc(O)cc2)cc1` [CU396, (1E,6E)-1-(4-hydroxyphenyl)-7-[4-((S)-2-tert-butoxycarbonylamino-3-phenylpropionylamino)phenyl]hepta-1,6-diene-3,5-dione], which melting point is on record?
**A.** 116 to 121 °C

**Q.** With `CCN(CC)c1ccc(/C=C/C(=O)CC(=O)/C=C/c2ccc(OC)c(O)c2)c(OCc2ccccc2)c1` [CU438, (1E,6E)-1-(2-benzyloxy-4-diethylaminophenyl)-7-(3-hydroxy-4-methoxyphenyl)hepta-1,6-diene-3,5-dione] as the molecule, how does the melting point read?
**A.** 72 to 77 °C

**Q.** Which melting point does the source give for `COc1cc(/C=C/C(=O)CC(=O)/C=C/c2cccc(OC)c2O)ccc1O` [CU250, (1E,6E)-1-(2-hydroxy-3-methoxyphenyl)-7-(4-hydroxy-3-methoxyphenyl)hepta-1,6-diene-3,5-dione] here?
**A.** 156 to 158 °C

**Q.** Which melting point does the source give for `COc1ccc(/C=C/C(=O)CC(=O)/C=C/c2cccc(OC)c2O)cc1O` [CU273, (1E,6E)-1-(2-hydroxy-3-methoxyphenyl)-7-(3-hydroxy-4-methoxyphenyl)hepta-1,6-diene-3,5-dione] here?
**A.** 155 to 157 °C

**Q.** Which melting point does the source give for `COc1cc(/C=C/C(=O)CC(=O)/C=C/c2ccc(N(C)C)cc2[N+](=O)[O-])ccc1O` [CU192, (1E,6E)-1-(4-dimethylamino-2-nitrophenyl)-7-(4-hydroxy-3-methoxyphenyl)hepta-1,6-diene-3,5-dione] here?
**A.** 203 to 210 °C

**Q.** For `COc1ccc(/C=C/C(=O)CC(=O)/C=C/c2ccc(O)cc2O)cc1O` [CU258, (1E,6E)-1-(2,4-dihydroxyphenyl)-7-(3-hydroxy-4-methoxyphenyl)hepta-1,6-diene-3,5-dione], which melting point is on record?
**A.** 104 to 109 °C

**Q.** With `COc1cc(/C=C/C(=O)CC(=O)/C=C/c2ccc(O)c([N+](=O)[O-])c2)ccc1O` [CU040, (1E,6E)-1-(4-hydroxy-3-methoxyphenyl)-7-(4-hydroxy-3-nitrophenyl)hepta-1,6-diene-3,5-dione] as the molecule, how does the melting point read?
**A.** 209 to 213 °C

**Q.** For `COc1ccc(/C=C/C(=O)CC(=O)/C=C/c2ccc3cc[nH]c3c2)cc1O` [CU191, (1E,6E)-1-(3-hydroxy-4-methoxyphenyl)-7-(1H-indol-6-yl)hepta-1,6-diene-3,5-dione], which melting point is on record?
**A.** 197 to 202 °C

**Q.** Which melting point does the source give for `O=C(/C=C/c1ccc(O)cc1)CC(=O)/C=C/c1cc(O)c(Br)cc1Br` [CU544, (1E,6E)-1-(2,4-dibromo-5-hydroxyphenyl)-7-(4-hydroxyphenyl)hepta-1,6-diene-3,5-dione] here?
**A.** 255 to 259 °C
